# Measurements as given in patent US6429202B1, “Phospholipid complexes of proanthocyanidin A2 as antiatherosclerotic agents” (Indena S.p.A., priority 1998, dated 2002).
# Tested on: atherosclerotic lesions on thoracic and abdominal aorta
# Experiment: Atherosclerotic lesions in rabbits fed a hypercholesterolemic diet
# Type: in vivo, New Zealand rabbits
# Conditions: hypercholesterolemic diet (0.2% w/w cholesterol), substance in diet, 8 week-treatment, aorta stained with Sudan IV
# Text: The complexes of the invention dose-dependently prevent or reduce the formation of, atherosclerotic plaques. The activity was evidenced in rabbits fed with a hypercholesterolemic diet so as to induce atherosclerotic lesions similar to the human ones at the vasal level, particularly at the aortal arch, ventral aorta, carotids and cerebral vessels. In said model, the above mentioned phospholipid complexes change the macro- and microscopical vascular condition reducing, compared with untreated animals, both the number and the severity of the atheromatous plagues, with surprising vascular-tissutal benefit.
# 32 New Zealand rabbits were divided in 4 groups of 8 animals each, and treated as follows:
# Group 1): Control, normal diet
# Group 2): Hypercholesterolemic diet (0.2% w/w cholesterol)
# Group 3): Hypercholesterolemic diet+phospholipid complex of proanthocyanidin A2 extract (0.2% cholesterol+2% w/w complex of Example 1).
# Group 4): Hypercholesterolemic diet+proanthocyanidin A2 extract (0.2% cholesterol+amount of proanthocyanidin A2 equivalent to that present in 2% w/w of the complex of Example 1). After 8 week-treatment, during which cholesterol, LDL/VLDL, HDL and triglycerids levels were measured, the animals were killed.
# The number, size and distribution of the atherosclerotic lesions on thoracic and abdominal aorta were evaluated. […]
structure (smiles),measurement,value
Oc1cc(O)c2c(c1)O[C@@]1(c3ccc(O)c(O)c3)Oc3cc(O)c4c(c3C2[C@H]1O)OC(c1ccc(O)c(O)c1)[C@H](O)C4 (stereo partly shown) [proanthocyanidin A2],area percent of the lesion,30%
